# Laboratory results published in US8022051B2, “Composition for protection and improvement of skin, or reinforcing skin barrier function comprising phosphatidylserine” (Doosan Corporation, priority 2004, dated 2011).
# Experiments:
# [1] = tested on: normal human keratinocytes; experiment: Differentiation promoting effect in skin keratinocytes (western blot of involucrin and transglutaminase); format: cell-based; conditions: phosphatidylserine 20 and 40 μM, calcium 1.2 mM, clofibrate 200 and 400 μM; 24 hours; FIG. 5
# Method: In order to examine a differentiation promoting effect in the skin keratinocytes by the phosphatidylserine of the invention, a following experiment was performed. First, the normal human keratinocytes (a gift from Dong-guk University) cultured in the KSFM (Keratinocyte-SFM; Gibco BRL/Life Technologies, USA) were seeded to the 35 mm^2 cell culture dish in an amount of 1.5×10^5 cells/dish and then cultured for a day. Next day, the culture medium was removed and a new culture medium containing 20 and 40 μM of phosphatidylserine aqueous solution, 1.2 mM calcium aqueous solution and 200 and 400 μM of clofibrate (Sigma, USA) added thereto was added and cultured for 24 hours. Next day, in order to make sure of a differentiation of the keratinocyte, a morphology change of the cell was checked with a phase contrast microscope (Nikon, Japan) and a photograph was taken with a digital camera attached to the microscope. In addition, a western blot was performed to check the protein expression amount of involucrin and transglutaminase, which have been known as a differentiation-marker proteins of the keratinocyte peculiar to the keratin. 500 μl of a lysis buffer having 2% sodium dodecyl sulfate (SDS) added thereto wad added and the cells were collected with a cell scrapper, so that cell lysate only was obtained. […]
# [2] = tested on: skin keratinocytes (HaCaT); experiment: Protection from ROS (hydrogen peroxide) in skin keratinocytes (MTT assay); format: cell-based; conditions: phosphatidylserine 25 μM, vitamin C 100 μM, vitamin E 100 μM, 24 hours; then 1 mM H2O2 about 1-1.5 hours; FIG. 8
# Method: In order to measure an effect of protecting the skin from the ROS in the keratinocyte by the phosphatidylserine of the invention, a following experiment was performed.
# First, the skin keratinocytes (HaCaT) were seeded to the 24-well plate in an amount of 5×10^4 cells/well. Next day, it was treated with 25 μM phosphatidylserine aqueous solution (Doosan Biotech, Korea) (phosphatidylserine-treated group), 100 μM vitamin C (ascorbic acid-treated group) and 100 μM vitamin E (a-tocopherol-treated group) as the positive control group and then cultured for 24 hours. Next day, it was treated with 1 mM hydrogen peroxide (H2O2) and then cultured for about 1˜1.5 hours. Then, a cell viability was examined with the MTT assay.
# skin = conditions: applied to the skin; Sheu et al., J Invest Dermatol 118, 94-101, 2002; cited from earlier work
# [3] = tested on: TPA-induced ear inflammation in CD-1 mouse; experiment: Alleviation of skin damage (inflammatory response) due to TPA in mouse ear; format: in vivo; conditions: TPA 0.03%; applied 30 μl per cm^2 at 45 minutes and 4 hours after induction; phosphatidylserine 0.5%, clofibrate 1 mM, Wy14643 1 mM; FIG. 2
# Method: In order to examine a skin damage (inflammatory response)-alleviating effect of the phosphatidylserine of the invention, which damage results from skin inflammation-inducing material, a following experiment was performed in accordance with a method used by Sheu et. al. (The Journal of Investigate Dermatology, 118, pp 94-101, 2002).
# First, CD-1 mouse (male & female, 6-8 weeks, Charles River, US) was used as an experimental object. TPA (12-0-tetradecanoylphorbol-13-acetate) 0.03% (wt./vol.; in acetone) solution 10 μl, which was skin inflammation-inducing material, was treated to inner and outer parts of both ears of the experimental animal. The ear was thickened due to TPA and there occurred an inflammatory response. Then, clofibrate (1 mM) and Wy14643 (1 mM) as already-known positive control group, which are agonists of PPAR-a, and the 0.5% phosphatidylserine containing aqueous solution used as the Example 1 as an experimental material were applied to both ears in an amount of 30 μl per cm^2 at times of 45 minutes and 4 hours after the inflammation was induced. After that, the treated parts of the ears were subject to a biopsy, and the biopsy parts were fixed to 4% formaldehyde and then subject to Hematoxylene & Eosin (E&H) staining. The tissue slide stained with H&E was magnified to 100 folds to check the inflammation alleviation.
# [4] = tested on: skin keratinocyte cell line (HaCaT) and normal human keratinocytes; experiment: Reduction of inflammatory response induced by ultraviolet irradiation in skin keratinocytes (ELISA of TNF-a, IL-6, IL-1alpha); format: cell-based; conditions: 25 mJ/cm^2 UVB; phosphatidylserine 20 and 40 μM, WY-14643 200 μM; 24 hours; FIG. 3
# Method: In order to examine an inflammatory response-reducing effect of the phosphatidylserine of the invention in the skin keratinocyte, which response results from the ultraviolet irradiation, a following experiment was performed in accordance with a method disclosed in the literature (Stefan et. al., The Journal of Investigate Dermatology, 117, pp 1430-1436, 2001).
# First, the skin keratinocyte cell line (HaCaT, a gift from Yonsei univeritym, Korea) was seeded to a 35 mm^2 of cell culture dish in an amount of 3×10^5 cells/dish and then cultured for a day. Next day, the culture medium was removed and the cell was washed with 1× phosphate-buffered saline (PBS), 700 μl of 1×PBS was added to each of the dishes, it was irradiated 25 mJ/cm^2 UVB and then PBS was removed. […] Next day, the culture medium was collected and then amounts of TNF-a and IL-6 which have been known as inflammatory cytokines were measured with an enzyme-linked immunosorbent assay (ELISA) method. In addition, in order to check that there occurred a similar inflammatory response reducing effect also in the normal human skin keratinocyte, an experiment was performed in the above-mentioned manner using normal human keratinocytes (a gift from Dong-guk University) instead of the HaCaT cell line and then an amount of IL-1alpha secreted to the culture medium was measured with the ELISA.
# [5] = tested on: skin keratinocyte cell line (HaCaT); experiment: Protection of skin keratinocytes from ultraviolet injury (MTT assay); format: cell-based, human; conditions: 25 mJ/cm^2 UVB; phosphatidylserine 20 and 40 μM, WY-14643 200 μM; 24 hours; FIG. 4
compound,measurement,setting,value
"[Ca+2] [calcium, reference compound]",protein expression of involucrin and transglutaminase,[1],caused the expressions of the two proteins to be increased
"O=C1O[C@H]([C@@H](O)CO)C(O)=C1O [ascorbic acid, reference compound]","protection effect from reactive oxygen species (cell viability, MTT)",[2],exhibited the protection effect
"Cc1cccc(Nc2cc(Cl)nc(SCC(=O)O)n2)c1C [WY14643, reference compound]",inflammation due to the skin stimulating material,skin,decreased
same,inflammation alleviation (H&E stained ear tissue),[3],inflammation was alleviated
same,"inflammatory response increased due to the ultraviolet irradiation (TNF-a, IL-6, IL-1alpha amounts)",[4],considerably alleviated
same,"protection of skin keratinocytes from ultraviolet injury (cell survival, MTT)",[5],protected the skin keratinocytes from the ultraviolet injury
"Cc1c(C)c2c(c(C)c1O)CC[C@@](C)(CCC[C@H](C)CCC[C@H](C)CCCC(C)C)O2 [a-tocopherol, reference compound]","protection effect from reactive oxygen species (cell viability, MTT)",[2],exhibited the protection effect
